Results from PubChem BioAssay AID256 (DTP/NCI, 2004).
Values joined by “and” are separate entries in the source; they are usually repeats but may differ in a detail not shown here. Identical values can stand only once. Toxic doses and inconclusive results are not listed. The calls were made as follows: active = survival T/C of 150% or more; inactive = T/C below 125% in these data. Residues, ends and D or L forms follow the SMILES beside them. *: point of attachment. Octanoyl = CCCCCCCC(=O)*

System: CD2F1 mice, L1210 leukemia ip, survival T/C
Assay: NCI In Vivo Anticancer Drug Screen. Data for tumor model L1210 Leukemia (intraperitoneal) in CD2F1 (CDF1) mice
Details: higher = longer survival
In short: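 In this screen, transplantable tumors were grown in mice given either the compound or its vehicle. Results were expressed as the treated measurement relative to the control measurement.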

[1] = endpoint: mean survival time, dose: 100.0 mg/kg/injection, schedule: Q01DX009 (ip), vehicle: saline with Tween-80
[2] = endpoint: mean survival time, dose: 200.0 mg/kg/injection, schedule: Q01DX009 (ip), vehicle: saline with Tween-80
[3] = endpoint: mean survival time, dose: 400.0 mg/kg/injection, schedule: Q01DX009 (ip), vehicle: saline with Tween-80
[4] = endpoint: mean survival time, dose: 100.0 mg/kg/injection, schedule: Q04DX003 (ip), vehicle: saline with Tween-80
[5] = endpoint: mean survival time, dose: 200.0 mg/kg/injection, schedule: Q04DX003 (ip), vehicle: saline with Tween-80
[6] = endpoint: mean survival time, dose: 400.0 mg/kg/injection, schedule: Q04DX003 (ip), vehicle: saline with Tween-80

Measured: T/C

CN(C)CCN1C(=O)c2cccc3cc([N+](=O)[O-])cc(c23)C1=O
inactive: endpoint: mean survival time, dose: 0.75 mg/kg/injection, schedule: Q01DX009 (ip), vehicle: saline with Tween-80 100 % of control and 106 % of control | endpoint: mean survival time, dose: 1.5 mg/kg/injection, schedule: Q01DX009 (ip), vehicle: saline with Tween-80 115 % of control and 107 % of control | endpoint: mean survival time, dose: 1.5 mg/kg/injection, schedule: Q01DX009 (ip), vehicle: saline 102 % of control | endpoint: mean survival time, dose: 3.0 mg/kg/injection, schedule: Q01DX009 (ip), vehicle: saline with Tween-80 113 % of control | endpoint: mean survival time, dose: 3.0 mg/kg/injection, schedule: Q01DX009 (ip), vehicle: saline 107 % of control | endpoint: mean survival time, dose: 6.0 mg/kg/injection, schedule: Q01DX009 (ip), vehicle: saline 109 % of control | endpoint: mean survival time, dose: 12.0 mg/kg/injection, schedule: Q01DX009 (ip), vehicle: saline with Tween-80 120 % of control | endpoint: mean survival time, dose: 12.0 mg/kg/injection, schedule: Q01DX009 (ip), vehicle: saline 117 % of control | endpoint: median survival time, dose: 0.37 mg/kg/injection, schedule: Q01DX009 (ip), vehicle: saline with Tween-80 100 % of control | endpoint: median survival time, dose: 0.75 mg/kg/injection, schedule: Q01DX009 (ip), vehicle: saline with Tween-80 95 % of control and 105 % of control | endpoint: median survival time, dose: 1.5 mg/kg/injection, schedule: Q01DX009 (ip), vehicle: saline with Tween-80 116 % of control and 98 % of control | endpoint: median survival time, dose: 3.0 mg/kg/injection, schedule: Q01DX009 (ip), vehicle: saline with Tween-80 104 % of control and 110 % of control | endpoint: median survival time, dose: 6.0 mg/kg/injection, schedule: Q01DX009 (ip), vehicle: saline with Tween-80 122 % of control | endpoint: median survival time, dose: 12.0 mg/kg/injection, schedule: Q01DX009 (ip), vehicle: saline with Tween-80 122 % of control

O=[N+]([O-])c1cc(Cl)c(Cl)cc1[N+](=O)[O-]
inactive: endpoint: mean survival time, dose: 100.0 mg/kg/injection, schedule: Q01DX001 (ip), vehicle: saline with Tween-80 90 % of control | endpoint: mean survival time, dose: 200.0 mg/kg/injection, schedule: Q01DX001 (ip), vehicle: saline with Tween-80 90 % of control

NC(=Nc1ccccc1)Nc1ccccc1 (tested in a mixture with another compound)
inactive: endpoint: mean survival time, dose: 100.0 mg/kg/injection, schedule: Q04DX003 (ip), vehicle: saline 103 % of control | endpoint: mean survival time, dose: 200.0 mg/kg/injection, schedule: Q04DX003 (ip), vehicle: saline 97 % of control | endpoint: mean survival time, dose: 400.0 mg/kg/injection, schedule: Q04DX003 (ip), vehicle: saline 100 % of control

O=C(Cc1ccccc1)NC(CSSCC(NC(=O)Cc1ccccc1)C(=O)O)C(=O)O (stereo not drawn)
inactive: [1] 101 % of control | [2] 98 % of control | [3] 93 % of control

CCCCCCCC(=O)NCC(=O)NCC(=O)O (Octanoyl-Gly-Gly-OH)
inactive: endpoint: mean survival time, dose: 6.25 mg/kg/injection, schedule: Q01DX001 (ip), vehicle: Klucel (hydroxypropylcellulose) (HPC) 97 % of control | endpoint: mean survival time, dose: 12.5 mg/kg/injection, schedule: Q01DX001 (ip), vehicle: Klucel (hydroxypropylcellulose) (HPC) 95 % of control | endpoint: mean survival time, dose: 25.0 mg/kg/injection, schedule: Q01DX001 (ip), vehicle: Klucel (hydroxypropylcellulose) (HPC) 100 % of control | endpoint: mean survival time, dose: 50.0 mg/kg/injection, schedule: Q01DX001 (ip), vehicle: Klucel (hydroxypropylcellulose) (HPC) 93 % of control

COc1ccc(NC(=O)Nc2ccccc2C(F)(F)F)cc1
inactive: [4] 98 % of control | [5] 96 % of control | [6] 90 % of control

Cc1ccc(S(=O)(=O)N/N=C/Cc2c(C(C)C)cc(C(C)C)cc2C(C)C)cc1
inactive: endpoint: median survival time, dose: 50.0 mg/kg/injection, schedule: Q04DX002 (ip), vehicle: saline with Tween-80 100 % of control | endpoint: median survival time, dose: 100.0 mg/kg/injection, schedule: Q04DX002 (ip), vehicle: saline with Tween-80 100 % of control | endpoint: median survival time, dose: 200.0 mg/kg/injection, schedule: Q04DX002 (ip), vehicle: saline with Tween-80 110 % of control | endpoint: median survival time, dose: 400.0 mg/kg/injection, schedule: Q04DX002 (ip), vehicle: saline with Tween-80 100 % of control

Nc1ncnc2c1ncn2CC(N)C(=O)O (stereo not drawn)
inactive: endpoint: mean survival time, dose: 100.0 mg/kg/injection, schedule: Q01DX001 (ip), vehicle: saline 103 % of control | endpoint: mean survival time, dose: 200.0 mg/kg/injection, schedule: Q01DX001 (ip), vehicle: saline 107 % of control | endpoint: mean survival time, dose: 400.0 mg/kg/injection, schedule: Q01DX001 (ip), vehicle: saline 105 % of control

OCCN1CCCCCCC1
inactive: endpoint: mean survival time, dose: 75.0 mg/kg/injection, schedule: Q01DX001 (ip), vehicle: saline 95 % of control | endpoint: mean survival time, dose: 150.0 mg/kg/injection, schedule: Q01DX001 (ip), vehicle: saline 102 % of control

CCC1=C[C@H]2CN(CCc3c([nH]c4ccccc34)[C@@](C(=O)OC)(c3cc4c(cc3OC)N(C)[C@H]3[C@@](O)(C(=O)NC)[C@H](OC(C)=O)[C@]5(CC)C=CCN6CC[C@]43[C@@H]65)C2)C1
inactive: endpoint: mean survival time, dose: 0.03 mg/kg/injection, schedule: Q01DX009 (ip), vehicle: water 101 % of control | endpoint: mean survival time, dose: 0.06 mg/kg/injection, schedule: Q01DX009 (ip), vehicle: water 111 % of control

CCOC(=O)C(C(=O)OCC)C(=O)c1cccc2c1ccc1ccccc12
inactive: endpoint: mean survival time, dose: 100.0 mg/kg/injection, schedule: Q01DX005 (ip), vehicle: saline with Tween-80 95 % of control | [1] 104 % of control | endpoint: mean survival time, dose: 200.0 mg/kg/injection, schedule: Q01DX005 (ip), vehicle: saline with Tween-80 95 % of control | [2] 93 % of control | endpoint: mean survival time, dose: 400.0 mg/kg/injection, schedule: Q01DX005 (ip), vehicle: saline with Tween-80 95 % of control | [3] 86 % of control

NC1=NCCCN1
inactive: endpoint: mean survival time, dose: 3.0 mg/kg/injection, schedule: Q01DX009 (ip), vehicle: saline sonified 109 % of control | endpoint: mean survival time, dose: 6.0 mg/kg/injection, schedule: Q01DX009 (ip), vehicle: saline sonified 111 % of control | endpoint: mean survival time, dose: 12.0 mg/kg/injection, schedule: Q01DX009 (ip), vehicle: saline sonified 94 % of control

COC12C(COC(N)=O)C3=C(C(=O)C(C)=C(N4CC4C#N)C3=O)N1CC1NC12 (stereo not drawn)
inactive: endpoint: median survival time, dose: 0.19 mg/kg/injection, schedule: Q01DX001 (ip), vehicle: water 120 % of control | endpoint: median survival time, dose: 0.38 mg/kg/injection, schedule: Q01DX001 (ip), vehicle: water 121 % of control | endpoint: median survival time, dose: 0.75 mg/kg/injection, schedule: Q01DX001 (ip), vehicle: water 123 % of control | endpoint: median survival time, dose: 1.5 mg/kg/injection, schedule: Q01DX001 (ip), vehicle: water 121 % of control

CN1C(=O)CN=C(c2ccccc2)c2cc(Cl)ccc21
inactive: endpoint: mean survival time, dose: 12.5 mg/kg/injection, schedule: Q01DX009 (ip), vehicle: Klucel (hydroxypropylcellulose) (HPC) 100 % of control | endpoint: mean survival time, dose: 25.0 mg/kg/injection, schedule: Q01DX009 (ip), vehicle: Klucel (hydroxypropylcellulose) (HPC) 104 % of control | endpoint: mean survival time, dose: 50.0 mg/kg/injection, schedule: Q01DX009 (ip), vehicle: Klucel (hydroxypropylcellulose) (HPC) 100 % of control | endpoint: mean survival time, dose: 200.0 mg/kg/injection, schedule: Q01DX009 (ip), vehicle: Klucel (hydroxypropylcellulose) (HPC) 90 % of control

COc1ccc(C2C3C=CC(C3)C2C(=O)O)cc1 (stereo not drawn)
inactive: [1] 96 % of control | [4] 106 % of control | [2] 96 % of control | [5] 103 % of control | [3] 103 % of control | [6] 95 % of control

COS(=O)(=O)CC(O)(c1ccccc1)c1ccccc1
inactive: endpoint: mean survival time, dose: 75.0 mg/kg/injection, schedule: Q01DX009 (ip), vehicle: saline 102 % of control | endpoint: mean survival time, dose: 75.0 mg/kg/injection, schedule: Q04DX003 (ip), vehicle: saline 97 % of control | endpoint: mean survival time, dose: 150.0 mg/kg/injection, schedule: Q01DX009 (ip), vehicle: saline 100 % of control | endpoint: mean survival time, dose: 150.0 mg/kg/injection, schedule: Q04DX003 (ip), vehicle: saline 95 % of control | endpoint: mean survival time, dose: 300.0 mg/kg/injection, schedule: Q01DX009 (ip), vehicle: saline 100 % of control | endpoint: mean survival time, dose: 300.0 mg/kg/injection, schedule: Q04DX003 (ip), vehicle: saline 95 % of control

C=Cc1ccc(OC2OC(COC(C)=O)C(OC3OC(COC(C)=O)C(OC(C)=O)C(OC(C)=O)C3OC(C)=O)C(OC(C)=O)C2OC(C)=O)cc1 (stereo not drawn)
inactive: endpoint: mean survival time, dose: 75.0 mg/kg/injection, schedule: Q01DX001 (ip), vehicle: other 92 % of control | endpoint: mean survival time, dose: 150.0 mg/kg/injection, schedule: Q01DX001 (ip), vehicle: other 95 % of control | endpoint: mean survival time, dose: 300.0 mg/kg/injection, schedule: Q01DX001 (ip), vehicle: other 92 % of control

CCCC(NC(=O)C(C)Br)C(=O)O (stereo not drawn)
inactive: [4] 95 % of control | [5] 96 % of control | [6] 100 % of control

c1ccc([Si]2(c3ccccc3)c3ccccc3-c3ccccc32)cc1
inactive: [1] 94 % of control | [2] 99 % of control

CNC(=O)C(=O)NC
inactive: [1] 96 % of control | [4] 101 % of control | [2] 98 % of control | [5] 98 % of control | [3] 98 % of control | [6] 101 % of control
